Source: US20140336136A1, “Carboxylated Stilbenes For Activating AMPK And Sirtuins” (Rahn AG, priority 2013, published 2014)
Marks after values point to notes of the source that are not given here. Blank lines part the entries; values can stand above or below the molecule they belong to.

Key:
[1] = target: T1, Sirt3 (Homo sapiens, UniProt Q9NTG7); assay: SIRT3 Fluorimetric Drug Discovery Kit, Sirt3 activation; assay type: biochemical; details: Example 2, Table 6
T1 construct: purchased BioMol, Hamburg, Germany
T1 sequence (Q9NTG7 1-399): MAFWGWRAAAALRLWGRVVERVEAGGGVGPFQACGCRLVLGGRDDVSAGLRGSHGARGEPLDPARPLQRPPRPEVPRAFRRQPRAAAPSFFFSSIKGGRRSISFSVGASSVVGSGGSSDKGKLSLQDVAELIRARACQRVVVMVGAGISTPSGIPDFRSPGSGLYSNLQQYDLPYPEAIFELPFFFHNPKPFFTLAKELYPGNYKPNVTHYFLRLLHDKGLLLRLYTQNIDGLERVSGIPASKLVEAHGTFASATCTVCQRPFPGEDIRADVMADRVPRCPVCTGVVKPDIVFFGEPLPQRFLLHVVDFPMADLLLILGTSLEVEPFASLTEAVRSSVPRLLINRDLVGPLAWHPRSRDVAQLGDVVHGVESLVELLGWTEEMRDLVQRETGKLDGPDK

[2] = tested on: 5′-AMP-activated protein kinase (AMPK); assay: Western blot analysis of AMPK phosphorylation in NHEK; assay type: cell-based, human; details: for AMPK phosphorylation [% Control] / Ratio P-AMPK/GAPDH / P-AMPK: 1000 μM; for P-AMPK: 48 h
[3] = tested on: normal human dermal fibroblasts (NHDF); assay: Resazurin based cytotoxicity assay in NHDF; assay type: cell-based; details: 24 h and 48 h; 0.03 μM to 200 μM
Method: The effect of compound (I-1) on mitochondria biosynthesis was investigated in normal human dermal fibroblasts (NHDF). NHDF were obtained from PromoCell (Lot No. 006151; donor; from eyelid skin) and cultivated in Fibroblast Growth Medium (PromoCell; Cat. No. C-023020) supplemented with Supplement Mix (PromoCell; Cat. No. C-039215) at 37° C./5% CO2. NHDF were seeded in flat-bottom 96-well plates (5000 cells/well) and incubated in said medium for 24 h or 48 h, respectively, with the compounds present in concentrations ranging from 0.03 μM to 200 μM. Mitochondria content was analyzed using the Mito-ID® Green Detection Kit for fluorescence microscopy (Enzo Life Sciences; Cat. No. ENZ-51055-K500). Fluorometric analysis was done using a Spectramax plate reader (Molecular Devices) and following the manufacturer's protocol. Cytotoxicity was determined in parallel by fluorometric readout using the Resazurin Based In Vitro Toxicology Assay Kit (Sigma Aldrich, Cat. No. TOX-8), and following the manufacturer's protocol.

[4] = target: T2, human sirtuin-1 (Sirt1) (Homo sapiens, UniProt Q96EB6); assay: SIRT1 Fluorimetric Drug Discovery Kit, Sirt1 activation; assay type: biochemical; details: for Fold increase in sirtl activity versus control: 10 μM, control = trans-resveratrol
T2 construct: purchased BioMol, Hamburg, Germany
T2 sequence (Q96EB6 1-747): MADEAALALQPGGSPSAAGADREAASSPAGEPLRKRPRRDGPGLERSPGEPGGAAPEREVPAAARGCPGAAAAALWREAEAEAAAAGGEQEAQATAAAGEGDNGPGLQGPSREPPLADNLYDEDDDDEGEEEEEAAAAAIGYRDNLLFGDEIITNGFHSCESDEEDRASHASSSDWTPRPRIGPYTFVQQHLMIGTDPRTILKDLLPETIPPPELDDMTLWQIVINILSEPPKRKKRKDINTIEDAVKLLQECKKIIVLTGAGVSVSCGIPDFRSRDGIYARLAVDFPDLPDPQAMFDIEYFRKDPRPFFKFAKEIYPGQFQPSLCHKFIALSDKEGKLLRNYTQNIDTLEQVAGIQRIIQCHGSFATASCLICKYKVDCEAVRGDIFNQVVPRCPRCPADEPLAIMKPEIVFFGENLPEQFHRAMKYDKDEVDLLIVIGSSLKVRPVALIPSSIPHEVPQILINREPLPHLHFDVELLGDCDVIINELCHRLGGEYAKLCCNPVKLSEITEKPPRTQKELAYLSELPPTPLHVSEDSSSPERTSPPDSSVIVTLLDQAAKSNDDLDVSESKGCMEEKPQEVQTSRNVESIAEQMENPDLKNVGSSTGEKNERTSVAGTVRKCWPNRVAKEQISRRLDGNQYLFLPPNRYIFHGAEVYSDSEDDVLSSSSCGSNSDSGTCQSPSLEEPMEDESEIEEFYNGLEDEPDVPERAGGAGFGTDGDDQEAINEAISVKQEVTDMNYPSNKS
Method: Compounds were tested for Sirt1 activation using the SIRT1 Fluorimetric Drug Discovery Kit (BioMol, Hamburg, Germany), Testing was carried out in dubplicate following the manufacturer's instructions. Assay medium: 50 mM Tris-HCl pH 8.0, 137 mM NaCl, 2.7 mM KCl, 1 mM MgCl2, 1 mg/ml bovine serum albumin (BSA). Stock solutions of the test compounds (10 mM in DMSO) were used, yielding a final concentration of 10 μM in the assay plate. Readout was obtained by measuring the fluorescence in a microtiter plate reader (excitation: 380 nm; detection: 440 nm).
For this purpose, the test item stock solutions were diluted to yield concentrations of 0.3, 1, 3, 10 and 30 μM, respectively, in the assay, which was performed as described above. The compound of structure (I-1) was selected for this experiment.
Quantification using the GraphPad Prism 5.0 software (GraphPad Software, Inc., LaJolla, Calif., USA) led to the following EC300 values (i.e. the concentration that gave 3-times the basal response of the enzyme=activation by a factor of three):
The selectivity of the agonistic effect of the compound of formula (I-1) on different sirtuin isoforms was investigated. For this purpose, in vitro testing was performed as described in Example 1 using the respective SIRT1 Fluorimetric Drug Discovery Kit, SIRT2 Fluorimetric Drug Discovery Kit, and SIRT3 Fluorimetric Drug Discovery Kit (each from BioMol, Hamburg, Germany). […] The dose-response effect is slightly lesser on Sirt3.

[5] = tested on: normal human epidermal keratinocytes (NHEK); assay: MTT reduction cytotoxicity assay in NHEK; assay type: cell-based; details: for viability: NHEK
Method: Culture conditions: 37° C., 5% CO2. Culture medium: Keratinocyte-SFM (serum-free medium) containing human recombinant epidermal growth factor (EGF 1-53) 0.25 ng/mL and bovine pituitary extract 25 μg/mL (Gibco; Cat. No. 17005-075), supplemented with gentamycin 25 μg/mL. Assay medium: Keratinocyte-SFM (Gibco; Cat. No. 10744-019), supplemented with gentamycin 25 μg/mL.
NHEK were seeded in 24-well plates (30.000 cells/well) and cultured in culture medium for 24 h and then in assay medium for another 24 h. Medium was then removed and replaced by assay medium containing the respective test compound or reference in defined concentrations.
Cytotoxicity was determined using the 3-(4,5-dimethylthiazol-2-yl)-2,5-diphenyltetrazoliumbromid (MTT) reduction assay (sse T. Mosmann (1983) J. Immunol. Methods. 65, pp. 55-63).

[6] = target: T3, Sirt2 (Homo sapiens, UniProt Q8IXJ6); assay: SIRT2 Fluorimetric Drug Discovery Kit, Sirt2 activation; assay type: biochemical; details: Example 2, Table 6
T3 construct: purchased BioMol, Hamburg, Germany
T3 sequence (Q8IXJ6 1-389): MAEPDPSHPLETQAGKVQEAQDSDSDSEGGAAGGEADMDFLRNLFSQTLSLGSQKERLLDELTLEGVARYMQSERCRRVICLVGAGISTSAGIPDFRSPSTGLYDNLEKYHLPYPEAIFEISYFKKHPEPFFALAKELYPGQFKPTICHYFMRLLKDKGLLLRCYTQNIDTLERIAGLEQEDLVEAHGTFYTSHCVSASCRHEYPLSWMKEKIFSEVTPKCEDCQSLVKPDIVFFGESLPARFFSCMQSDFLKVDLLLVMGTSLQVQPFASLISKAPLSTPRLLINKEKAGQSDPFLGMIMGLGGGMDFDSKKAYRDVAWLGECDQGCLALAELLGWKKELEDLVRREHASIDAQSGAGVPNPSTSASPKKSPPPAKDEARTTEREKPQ

[7] = Example 1, concentration that gave 3-times the basal response of the enzyme

SMILES: CCOC(=O)c1c(O)cccc1/C=C/c1ccc(OCC)cc1 [(I-1)]
- EC300 [1]: >30* μM
- AMPK phosphorylation ([2]; NHEK, 30 μM): significantly enhanced
- cytotoxicity / cell viability in NHDF [3]: no cytotoxicity or loss of cell viability
- Fold increase in sirtl activity versus control [4]: 23.9
- EC300 [4, 7]: 2.0 µM
- EC300 ([4]; Example 2, Table 6, Sirt1): 12.9 µM
- cytotoxicity against NHEK [5]: no cytotoxicity
- EC300 [6]: 4.9 µM

SMILES: O=C(O)c1c(O)cccc1/C=C/c1ccc(O)cc1 [(I-2)]
- Fold increase in sirtl activity versus control [4]: 4.8

SMILES: COC(=O)c1c(/C=C/c2ccc(OC)cc2)cccc1OC [(I-3)]
- Fold increase in sirtl activity versus control [4]: 1.1

SMILES: NC(=O)c1ncn([C@@H]2O[C@H](CO)[C@@H](O)[C@H]2O)c1N [AICAR, 5-Amino-1-βD-ribofuranosyl-imidazole-4-carboxamide]
- AMPK phosphorylation [% Control] ([2]; Experiment 1, Membrane 1): 482 % Control
- Ratio P-AMPK/GAPDH ([2]; Experiment 1, Membrane 1): 2.05
- P-AMPK ([2]; Experiment 1, Membrane 1): 1060 AU/mm^2
- AMPK phosphorylation [% Control] ([2]; Experiment 2): 506 % Control
- Ratio P-AMPK/GAPDH ([2]; Experiment 2): 0.572
- P-AMPK ([2]; Experiment 2): 1377449 AU/mm^2

Now from value to molecule, other results behind:

- Fold increase in sirtl activity versus control [4]: 2.0
SMILES: COc1cc(/C=C/c2cccc(O)c2C(=O)O)cc(OC)c1O [(I-4)]

- Fold increase in sirtl activity versus control [4]: 2.7
SMILES: O=C(O)c1c(O)cccc1/C=C/c1ccc(OC2OC(CO)C(O)C(O)C2O)cc1 (centres unmarked) [(I-5)]

- EC300 [4, 7]: > 30 µM
- EC300 ([4]; Example 2, Table 6, Sirt1): >30 µM
- EC300 [6]: >30 µM
SMILES: Oc1ccc(/C=C/c2cc(O)cc(O)c2)cc1 [trans-resveratrol]
- viability ([5]; 100 μM): 2%
- viability ([5]; 300 μM): 43%
